Test results as given in PMC12169104, “Towards the development of supramolecular self-associating amphiphiles as antibiofilm agents against Pseudomonas aeruginosa and Candida albicans biofilms” (Journal of Materials Chemistry. B, 2025).
Read-outs that look alike come from different tables or passages of the source.

Tests used:
[1] = Bi-directional permeability in Caco-2 cell line; type: in vitro ADME; conditions: human; for recovery at 2 h, 5 µM: Caco-2, pH 7.4, SSA recovered from the assay after 2 hours
Protocol: Bi-directional Permeability in Caco-2 Cell Line:
The bi-directional permeability in Caco-2 cell lines was determined by seeding cells onto an HTS Transwell plate. Cells were cultivated for 14-18 days in a cell culture incubator at 37°C, 5% CO2, 95% relative humidity. Cell culture medium was replaced every other day. To assess monolayer integrity the transepithelial electrical resistance (TEER) across the monolayer was measured using Millicell Epithelial volt-ohm meter prior to assay and Lucifer yellow (LY) fluorescence measurement post- […]
Test compound was prepared in DMSO and diluted in Hank’s Balanced Saline Solution (HBSS, pH 7.4) to a final concentration of 5 µM. Compound was added to the donor compartment of the transwell plate for both apical to basolateral (A>B) and basolateral to apical (B>A) measurements, with blank HBSS being added to the receiver compartment. The transwell plate was then incubated at 37°C, 5% […]
Samples were shaken at T=0 and T=2 hours to determine the concentration of initial donor sample, and the concentration of receiver and donor wells post-incubation, respectively. The samples were quenched with solvent containing internal standard (IS). The supernatant was mixed with an appropriate volume of ultra-pure water before LC-MS/MS analysis. […]
coupled to a Sciex 5500+ (AB Inc., Illinois). Separation of compounds was achieved using an XSelect HSS T3 XP (2.5µm,2.1x50mm) (Waters Ltd., Wilmslow) column at a temperature of 40°C. A binary mobile phase gradient at a flow rate of 0.7 mL/min was used. Initial LC conditions comprised of 95% solvent A (0.1% formic acid in water) and 5% solvent B (0.1% formic acid in acetonitrile). This was ramped to 95% solvent B at 1.2 minutes, held for 0.4 minutes and then immediately returned to initial conditions. Sample analysis was by electrospray ionisation combined with multiple reaction monitoring in positive ion mode. The ionspray voltage was 5500V.

[2] = test system: P. aeruginosa (PAO1) biofilms; assay: Biofilm inhibition, XTT metabolic assay; type: cell-based, Pseudomonas aeruginosa; conditions: 2.56 mM, Fig. 7(a)
Protocol: Initially, the ability of SSAs 1–5 to inhibit biofilm formation was determined against P. aeruginosa (PAO1) biofilms through an XTT metabolic assay, used to determine the viability of cells within a biofilm (Section S4, ESI ^†).[57] […] We believe that this may indicate that SSAs which contain a squaramide residue may experience an additional barrier to eliciting an antimicrobial effect that is concentration dependent.
Section S4: Microbial materials and methods
General remarks: The reference strains, Pseudomonas aeruginosa PAO1 and Candida albicans SC5314,
were used in this study. The strains were stored at −80 °C in nutrient broth (NB) (1 gL–1 meat extract, 2
gL–1 yeast extract, 5 gL–1 peptone, and 8 gL–1 sodium chloride) supplemented with 25 and 15 % (v/v)
glycerol, respectively. Before each assay, the P. aeruginosa and C. albicans strains were cultured from
the frozen stock onto nutrient agar (NA) (1 gL –1 […], 2 gL–1 yeast extract, 5 gL–1 peptone, 8 gL–
1 sodium chloride, 20 gL–1 agar) and yeast malt extract (YM) agar (3 gL–1 malt extract, 3 gL–1 yeast […]
for 48 hours at 37 °C and OD measurement (at a wavelength of 595 nm, OD 595) (EZ Read 800 Research, […]
introduced to each well. The plates were incubated for 3 hours at 37 °C in the dark and the absorbance
measured at 492 nm using a microtiter plate reader (EZ Read 800 Research, Biochrom, England). […]
evaluated. […]

[3] = cited from earlier work; for CAC / CAC (mM) / ST at CAC (mN m^−1): H2O:EtOH 19:1, approx. 291 K; for CAC / CAC (mM): surface tension measurements; for ST at CAC (mN/M): Table S1, same datum as Table 1
[4] = test system: polymicrobial biofilms of C. albicans (SC5314) and P. aeruginosa (PAO1); parameters: method as in PMID 38222503; conditions: 0.16 mM, XTT assay, Fig. 8(c); cited from earlier work

SMILES | Inhibition of biofilm formation [2] | CAC [3] [mM] | CAC (mM) [3] | ST at CAC (mN m^−1) [3] | ST at CAC (mN/M) [3] [mN/M] | antibiofilm activity [4] | further results
O=C(O)CNc1c(Nc2ccc(C(F)(F)F)cc2)c(=O)c1=O [SSA 5] | completely inhibit biofilm formation |  |  |  |  |  | efflux ratio at 2 h, 5 µM ([1]; Caco-2, pH 7.4): > 73.9; recovery at 2 h, 5 µM ([1]; read-out: % Recovery (A-B)): < 98.4%; recovery at 2 h, 5 µM ([1]; read-out: % Recovery (B-A)): 82.6%; Papp A→B at 2 h, 5 µM ([1]; Caco-2, pH 7.4, apical to basolateral, 5 µM, 2 hours): < 0.06 ×10⁻⁶ cm/s; Papp B→A at 2 h, 5 µM ([1]; Caco-2, pH 7.4, basolateral to apical, 5 µM, 2 hours): 4.24 ×10⁻⁶ cm/s
Cc1ccc2nc(-c3ccc(NC(=O)NCS(=O)(=O)O)cc3)sc2c1 [SSA 3] |  | 0.5 | 0.5[42] mM | 47[42] mN m^−1 | 46.5 |  | 
O=c1c(NCCCS(=O)(=O)O)c(Nc2ccc(C(F)(F)F)cc2)c1=O [SSA 4] | completely inhibit biofilm formation |  |  |  |  |  | 
O=S(=O)(O)CCCNC(=S)Nc1ccc(C(F)(F)F)cc1 [SSA 1] |  | 5.61 | 5.6[43] mM | 34[43] mN m^−1 | 33.59 | 60–80% | 
O=C(O)CNC(=S)Nc1ccc(C(F)(F)F)cc1 [SSA 2] |  |  |  |  |  | 60–80% | 
